The text below walks through data of PubChem BioAssay (NCI).

SMILES strings stand for the structures.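 Test compounds were applied to cells in 96-well plates for 48 hours at 5 doses. GI50 marks 50% less growth. The concentration for full growth arrest is given as TGI.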

One test concerns OVCAR-3 ovarian. In words: DTP human tumour cell line panel, 48 h.
A word on the TGI: it is the concentration giving total growth inhibition. Read a high TGI as less potent growth arrest. `CCOC(=O)/C=C(/C(=O)OCC)n1ccc(N)nc1=O` gave a total growth inhibition concentration (TGI) of over 100 µM.

The compound `CCCSc1ccc2[nH]c(/N=C/c3ccco3)cc2c1` showed a TGI of over 100 µM.

The compound `Cc1cn(C2CC(n3cc(Cn4cc(Br)c(=O)[nH]c4=O)nn3)C(CO)O2)c(=O)[nH]c1=O` (stereo not drawn) gave a TGI of over 100 µM.

In turn, `C1CNCCNCCN1` came in with a TGI of over 100 µM.

The compound `CC1Cn2c(nc3ccccc32)NC1=O` (stereo not drawn) registered a TGI of over 100 µM.

On to `O=c1nc2c(c(-c3ccccc3Cl)[nH]1)COC/C2=C\c1ccccc1Cl`, for which the concentration for total growth inhibition (TGI) was over 100 µM.

The next test deals with RXF 393 renal. Briefly: DTP human tumour cell line panel, 48 h.
Compound `CCC1(C(=O)OC(C)(C)C)OC12C(C)CCCC2C` (stereo not drawn) had a TGI of 36.4 µM.

`Cc1ccc(-c2cc(N)n(-c3nc4c(c(=O)n(C)c(=O)n4C)n3C)n2)cc1` showed a TGI of over 100 µM.

The compound `CN(C)c1ccc(C2SCC(=O)N2NS(=O)(=O)c2cccc(C(=O)O)c2)cc1` (stereo not drawn) yielded a TGI of over 100 µM.

`COC(=O)[C@H](Cc1ccccc1)NC(=O)[C@H](Cc1ccccc1)NC(=O)[C@@H]1CCCN1C(=O)N[C@H]1C2C=CC(C2)C1C(=O)N1CCC[C@H]1C(=O)N[C@@H](C)C(=O)N[C@H](C(=O)OC)C(C)C` (stereo partly drawn) registered a total growth inhibition concentration (TGI) of over 100 µM.

As for `O=C1c2ccccc2-c2nc(-c3cccc([N+](=O)[O-])c3)nnc21`, the TGI was over 100 µM.

Compound `CNC(=O)Oc1ccc(-c2cn3cc(OC(=O)NC)ccc3n2)cc1` showed a TGI of over 100 µM.

As for `CC(=O)N1N=C(c2ccc3ccccc3c2O)CC1C(=O)c1ccco1` (stereo not drawn), the TGI was over 100 µM.

In turn, `N#Cc1nc(-c2cccs2)oc1N` showed a concentration for total growth inhibition (TGI) of over 100 µM.

For the compound `O=c1c2c([N+](=O)[O-])cccc2nc2[nH]c3ccccc3n12`, the concentration for total growth inhibition (TGI) was 30.4 µM.

`O=C(NCCCCCCNCc1cccc2ccccc12)Nc1cccc2ccccc12` gave a total growth inhibition concentration (TGI) of over 100 µM.

Compound `OCC1OC(n2cnc3c(Cl)nc(Nc4ccccc4)nc32)CC1O` (stereo not drawn) had a TGI of over 100 µM.

With `CC1(CF)SCc2nc3ccccc3n21` (stereo not drawn), the concentration for total growth inhibition (TGI) was over 100 µM.

In general, GI50 refers to the concentration at which growth is held to half of that of the control. For `C[C@]12CCc3nc(Nc4ccccc4)sc3C1=CC[C@@H]1[C@@H]2CC[C@]2(C)/C(=N/NC(N)=S)CC[C@@H]12`, the GI50 was 2.18 µM and the concentration for total growth inhibition (TGI) worked out at 5.09 µM.

Compound `Nc1cccc(Nc2nc3ccccc3nc2NS(=O)(=O)c2ccccc2)c1` returned a TGI of 38.7 µM.

Turning to `N#Cc1c(-c2ccccc2)nc(-c2ccccc2)sc1=S`, the TGI is over 100 µM.

Compound `CCn1nc2c3c(ncn3C(C)(C)O2)c1=O` returned a TGI of over 100 µM.

`O=C(O)CC[N+]1=CCC(c2ccccc2)(c2ccccc2)O1`: the TGI is over 100 µM.

As for `O=C1CCCCC(=O)OC2(CCCCC2=O)CC1` (stereo not drawn), the total growth inhibition concentration (TGI) is over 100 µM.

For the compound `CCC(C#N)NC(=O)NC(C#N)CC` (stereo not drawn), the TGI was over 100 µM.

`CCCSc1ccc2[nH]c(/N=C/c3ccco3)cc2c1` yielded a total growth inhibition concentration (TGI) of over 100 µM.

Consider `Cc1cn(C2CC(n3cc(Cn4cc(Br)c(=O)[nH]c4=O)nn3)C(CO)O2)c(=O)[nH]c1=O` (stereo not drawn), for which the TGI was over 100 µM.

Compound `C1CNCCNCCN1` came in with a TGI of over 100 µM.

The compound `CC1Cn2c(nc3ccccc32)NC1=O` (stereo not drawn) returned a TGI of over 100 µM.

`O=c1nc2c(c(-c3ccccc3Cl)[nH]1)COC/C2=C\c1ccccc1Cl`: the concentration for total growth inhibition (TGI) was over 100 µM.

The test system of another test is SK-MEL-28 melanoma. Briefly: DTP human tumour cell line panel, 48 h.
On to `CCC1(C(=O)OC(C)(C)C)OC12C(C)CCCC2C` (stereo not drawn), for which the total growth inhibition concentration (TGI) is over 100 µM.

As to `Cc1ccc(-c2cc(N)n(-c3nc4c(c(=O)n(C)c(=O)n4C)n3C)n2)cc1`, the concentration for total growth inhibition (TGI) is over 100 µM.

Compound `CN(C)c1ccc(C2SCC(=O)N2NS(=O)(=O)c2cccc(C(=O)O)c2)cc1` (stereo not drawn) returned a total growth inhibition concentration (TGI) of over 100 µM.

`COC(=O)[C@H](Cc1ccccc1)NC(=O)[C@H](Cc1ccccc1)NC(=O)[C@@H]1CCCN1C(=O)N[C@H]1C2C=CC(C2)C1C(=O)N1CCC[C@H]1C(=O)N[C@@H](C)C(=O)N[C@H](C(=O)OC)C(C)C` (stereo partly drawn) had a TGI of over 100 µM.

`CNC(=O)Oc1ccc(-c2cn3cc(OC(=O)NC)ccc3n2)cc1`: the total growth inhibition concentration (TGI) was over 100 µM.

`CC(=O)N1N=C(c2ccc3ccccc3c2O)CC1C(=O)c1ccco1` (stereo not drawn): the TGI was over 100 µM.

In the case of `N#Cc1nc(-c2cccs2)oc1N`, the TGI is over 100 µM.

In turn, `O=c1c2c([N+](=O)[O-])cccc2nc2[nH]c3ccccc3n12` yielded a TGI of over 75 µM.

On to `O=C(NCCCCCCNCc1cccc2ccccc12)Nc1cccc2ccccc12`, for which the TGI is over 100 µM.

`CC1(CF)SCc2nc3ccccc3n21` (stereo not drawn) displayed a TGI of over 100 µM.

Turning to `C[C@]12CCc3nc(Nc4ccccc4)sc3C1=CC[C@@H]1[C@@H]2CC[C@]2(C)/C(=N/NC(N)=S)CC[C@@H]12`, the GI50 was 4.49 µM and the TGI is over 100 µM.

On to `NCCSc1nc2ccccc2c(=O)n1-c1ccccc1`, for which the concentration for total growth inhibition (TGI) is over 100 µM.

Take `Nc1cccc(Nc2nc3ccccc3nc2NS(=O)(=O)c2ccccc2)c1`: the concentration for total growth inhibition (TGI) turned out to be 49.3 µM.

Take `O=c1[nH]nc(Cc2ccc([N+](=O)[O-])cc2)n1CCO`: the total growth inhibition concentration (TGI) is over 100 µM.

Regarding `N#Cc1c(-c2ccccc2)nc(-c2ccccc2)sc1=S`, the concentration for total growth inhibition (TGI) was over 100 µM.

In the case of `CCn1nc2c3c(ncn3C(C)(C)O2)c1=O`, the TGI was over 100 µM.

The compound `O=C(O)CC[N+]1=CCC(c2ccccc2)(c2ccccc2)O1` displayed a TGI of over 100 µM.

For the compound `O=C1CCCCC(=O)OC2(CCCCC2=O)CC1` (stereo not drawn), the TGI was over 100 µM.

For the compound `CCOC(=O)/C=C(/C(=O)OCC)n1ccc(N)nc1=O`, the TGI is over 100 µM.

`CCCSc1ccc2[nH]c(/N=C/c3ccco3)cc2c1` returned a TGI of over 100 µM.

The compound `Cc1cn(C2CC(n3cc(Cn4cc(Br)c(=O)[nH]c4=O)nn3)C(CO)O2)c(=O)[nH]c1=O` (stereo not drawn) displayed a TGI of over 100 µM.

Compound `C1CNCCNCCN1` came in with a TGI of over 100 µM.

With `O=c1nc2c(c(-c3ccccc3Cl)[nH]1)COC/C2=C\c1ccccc1Cl`, the TGI is over 100 µM.

A further test has as its system SK-OV-3 ovarian. Briefly: DTP human tumour cell line panel, 48 h.
In the case of `CCC1(C(=O)OC(C)(C)C)OC12C(C)CCCC2C` (stereo not drawn), the TGI is over 100 µM.

Consider `Cc1ccc(-c2cc(N)n(-c3nc4c(c(=O)n(C)c(=O)n4C)n3C)n2)cc1`, for which the total growth inhibition concentration (TGI) is over 100 µM.

In the case of `CN(C)c1ccc(C2SCC(=O)N2NS(=O)(=O)c2cccc(C(=O)O)c2)cc1` (stereo not drawn), the total growth inhibition concentration (TGI) was over 100 µM.

On to `COC(=O)[C@H](Cc1ccccc1)NC(=O)[C@H](Cc1ccccc1)NC(=O)[C@@H]1CCCN1C(=O)N[C@H]1C2C=CC(C2)C1C(=O)N1CCC[C@H]1C(=O)N[C@@H](C)C(=O)N[C@H](C(=O)OC)C(C)C` (stereo partly drawn), for which the concentration for total growth inhibition (TGI) is over 100 µM.

With `O=C1c2ccccc2-c2nc(-c3cccc([N+](=O)[O-])c3)nnc21`, the TGI was over 100 µM.

In the case of `CNC(=O)Oc1ccc(-c2cn3cc(OC(=O)NC)ccc3n2)cc1`, the TGI was over 100 µM.

Regarding `CC(=O)N1N=C(c2ccc3ccccc3c2O)CC1C(=O)c1ccco1` (stereo not drawn), the TGI is over 100 µM.

The compound `N#Cc1nc(-c2cccs2)oc1N` yielded a TGI of over 100 µM.

For the compound `O=c1c2c([N+](=O)[O-])cccc2nc2[nH]c3ccccc3n12`, the concentration for total growth inhibition (TGI) turned out to be 24.6 µM.

In the case of `OCC1OC(n2cnc3c(Cl)nc(Nc4ccccc4)nc32)CC1O` (stereo not drawn), the TGI was over 100 µM.

Take `CC1(CF)SCc2nc3ccccc3n21` (stereo not drawn): the TGI was over 100 µM.

`C[C@]12CCc3nc(Nc4ccccc4)sc3C1=CC[C@@H]1[C@@H]2CC[C@]2(C)/C(=N/NC(N)=S)CC[C@@H]12`: the GI50 was 82.7 µM and the concentration for total growth inhibition (TGI) was over 100 µM.
